One compound from patent US20100004272A1, “Modulators of metabolism and the treatment of disorders related thereto” (ARENA PHARMACEUTICALS, INC., priority 2006, published 2010) can be followed below.

The target of data set [1] is T1, RUP3 receptor (Mus musculus, UniProt Q7TQP3).
T1 construct: expressed in transfected cells; host or cells: melanophores, electroporated
T1 sequence (Q7TQP3 1-335): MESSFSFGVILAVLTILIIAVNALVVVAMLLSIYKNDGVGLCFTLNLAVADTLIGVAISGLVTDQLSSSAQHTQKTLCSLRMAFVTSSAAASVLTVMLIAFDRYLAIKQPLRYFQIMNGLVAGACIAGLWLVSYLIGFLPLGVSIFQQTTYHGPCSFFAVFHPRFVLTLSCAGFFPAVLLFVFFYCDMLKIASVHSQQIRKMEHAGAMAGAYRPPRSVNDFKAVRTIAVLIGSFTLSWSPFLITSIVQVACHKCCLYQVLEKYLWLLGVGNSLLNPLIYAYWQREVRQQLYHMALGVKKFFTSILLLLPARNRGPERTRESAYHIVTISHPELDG
In words: RUP3 dose response in melanophores (mouse RUP3). Type of data set: cell-based. Here is the method: (§1) Melanophores are maintained in culture as reported by Potenza, M. N. and Lerner, M. R., in Pigment Cell Research, Vol. 5, 372-378, 1992 and transfected with the RUP3 expression vector (pCMV) using electroporation. Following electroporation, the transfected cells are plated into 96 well plates for the assay. The cells are then allowed to grow for 48 hours in order to both recover from the electroporation procedure and attain maximal receptor expression levels. On the assay day, the growth medium on the cells is replaced with serum-free buffer containing 10 nM melatonin. The melatonin acts via an endogenous Gi-coupled GPCR in the melanophores to lower intracellular cAMP levels. In response to lowered cAMP levels, the melanophores translocate their pigment to the center of the cell. The net effect of this is a significant decrease in the absorbance reading of the cell monolayer in the well, measured at […]. After a 1-hour incubation in melatonin, the cells become completely pigment-aggregated. At this point a baseline absorbance reading is collected. Serial dilutions of test compounds are then added to the plate and compounds that stimulate RUP3 produce increases in intracellular cAMP levels. […] The measured increase in absorbance compared to the baseline reading allows one to quantitate the degree of receptor stimulation and plot a dose-response curve.

For data set [2], the target named is T2, RUP3 receptor (Rattus norvegicus, UniProt Q7TQN8).
T2 construct: expressed in transfected cells; host or cells: melanophores, electroporated
T2 sequence (Q7TQN8 1-468): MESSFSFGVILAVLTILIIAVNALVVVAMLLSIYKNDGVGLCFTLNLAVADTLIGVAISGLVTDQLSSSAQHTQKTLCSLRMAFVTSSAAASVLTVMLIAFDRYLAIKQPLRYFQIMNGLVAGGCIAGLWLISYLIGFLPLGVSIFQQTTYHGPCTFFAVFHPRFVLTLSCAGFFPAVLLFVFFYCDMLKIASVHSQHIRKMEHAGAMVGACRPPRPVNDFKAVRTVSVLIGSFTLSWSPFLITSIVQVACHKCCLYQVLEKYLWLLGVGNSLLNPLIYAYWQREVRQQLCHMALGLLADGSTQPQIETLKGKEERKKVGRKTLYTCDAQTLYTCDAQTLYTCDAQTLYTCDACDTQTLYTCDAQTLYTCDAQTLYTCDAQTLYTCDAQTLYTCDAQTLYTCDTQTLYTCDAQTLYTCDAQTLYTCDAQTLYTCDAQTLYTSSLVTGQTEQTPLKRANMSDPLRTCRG
Kind of data set: RUP3 dose response in melanophores (rat RUP3). Type of data set: cell-based. Here is the method: as §1

Data set [3] has as its target T3, RUP3 receptor (Canis lupus familiaris, UniProt A0A8I3QZL6).
T3 sequence (A0A8I3QZL6 1-335): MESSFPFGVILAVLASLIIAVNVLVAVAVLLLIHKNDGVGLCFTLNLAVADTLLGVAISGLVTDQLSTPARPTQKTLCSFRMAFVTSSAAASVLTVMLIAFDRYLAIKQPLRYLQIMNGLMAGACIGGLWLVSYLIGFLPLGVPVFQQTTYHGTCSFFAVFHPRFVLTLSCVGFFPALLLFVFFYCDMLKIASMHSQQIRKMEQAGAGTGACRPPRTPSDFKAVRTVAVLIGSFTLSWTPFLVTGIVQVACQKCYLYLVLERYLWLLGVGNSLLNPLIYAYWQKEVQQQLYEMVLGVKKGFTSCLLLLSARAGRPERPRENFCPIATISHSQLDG
Kind of data set: RUP3 dose response in melanophores (dog RUP3). The format is cell-based. Here is the method: as §1

Data set [4] addresses T4, RUP3 receptor (Homo sapiens, UniProt Q8TDV5).
T4 construct: expressed in transfected cells; host or cells: melanophores (as per Potenza and Lerner 1992), electroporated
T4 sequence (Q8TDV5 1-335): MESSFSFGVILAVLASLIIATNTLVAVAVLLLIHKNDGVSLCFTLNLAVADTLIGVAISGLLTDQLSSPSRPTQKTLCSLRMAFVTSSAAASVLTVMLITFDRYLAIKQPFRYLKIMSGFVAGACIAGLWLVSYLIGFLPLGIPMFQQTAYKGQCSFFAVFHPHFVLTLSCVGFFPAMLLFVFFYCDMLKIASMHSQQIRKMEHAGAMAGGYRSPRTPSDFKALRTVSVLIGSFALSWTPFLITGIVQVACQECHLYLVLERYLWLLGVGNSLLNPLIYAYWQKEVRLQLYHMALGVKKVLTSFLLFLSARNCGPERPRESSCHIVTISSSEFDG
In words: RUP3 dose response in melanophores (human RUP3). Type of data set: cell-based. On the procedure:
as §1

A short description of data set [5]: Rat dose-range PK study (dose escalation pharmacokinetics). Type of data set: in vivo. The following applies: PO 3, 30, 300 mg/Kg, FIG. 1. On the procedure:
Male SD rats (250-300 g) were purchased from Charles River Laboratory; upon receipt, animals were placed under light-dark cycle (6:30 am-6:30 pm lights on) They were allowed ad libitum access to water and 4 pieces of food daily (Purina Meals Rodent Diet, Product Number 5001).
Compound formulations were prepared as following: The IV injection formulation was prepared in 20% hydroxypropyl-beta-cyclodextrin with concentration of 0.667 mg/mL. The PO formulations were prepared in 0.5% hydroxypropyl methylcellulose with concentrations of […]. The dosing volume for IV injection was 3 mL/Kg and for PO administration was 10 mL/Kg. Four rats were used for each dose group. […]
Plasma samples were prepared as follows. […] Calibration standards were typically prepared in the range of 2.0 ng/mL to 10 μg/mL with linear regression for quantitation. […]
Results were calculated by noncompartmental analysis using WinNonlin Pro version 3.1 based on plasma concentration-time profiles for individual animals. Plasma levels were determined as described above and the oral and intravenous area under the concentration vs. time curve (AUC was calculated using the linear trapezoidal rule up to the last measurable concentration and was then extrapolated to infinity) were compared to determine the % bioavailability (% oF) by the following formula: Dose (IV)*AUC (oral)/Dose (oral)*AUC (IV). […]

A further data set deals with Male Sprague Dawley rats. In words: Oral glucose tolerance test (oGTT) in rats. The settings on record: fasted male Sprague Dawley rats, p.o. 30 min before dextrose 3 g/kg, doses 0.3, 3 or 30 mg/kg (dose of this value not stated), mean of six animals. The format is in vivo, rat. On the procedure: General Procedure—Oral Glucose tolerance test (oGTT)
Male Sprague Dawley rats (Harlan, San Diego, Calif.) weighing approximately 350-375 g were fasted for 16 hours and randomly grouped (n=6) to receive a RUP3 agonist at 0.3, 3 or 30 mg/kg. Compounds were delivered orally via a gavage needle (p.o., volume 2 mL/kg). At time 0, levels of blood glucose were assessed using a glucometer (Accu-Chek Advantage, Roche Diagnostics), and rats were administered either vehicle (20% hydroxypropyl-beta-cyclodextrin) or test compound. Thirty minutes after administration of test compound, levels of blood glucose were again assessed, and rats were administered dextrose orally at a dose of 3 g/kg. Blood glucose measurements were then taken 30 min, 60 min, and 120 min after this time.

Turning to `Cc1nc(S(C)(=O)=O)ccc1Nc1ncnc(OC2CCN(C(=O)OC(C)C)CC2)c1C` [Formula (I), 4-[6-(6-methanesulfonyl-2-methyl-pyridin-3-ylamino)-5-methyl-pyrimidin-4-yloxy]-piperidine-1-carboxylic acid isopropyl ester], the concentration for a half-maximal effect (EC50) on RUP3 receptor [1] amounted to 43 nM; at RUP3 receptor [2] it was 42 nM; on RUP3 receptor [3] it was 8 nM; on RUP3 receptor [4] it was 2 nM. The “dose escalation pharmacokinetics (AUC vs. dose linearity)” value in data set [5] is “essentially linear dose escalation pharmacokinetics”. In the data set with Male Sprague Dawley rats, the “mean percent inhibition of glucose excursion” value was determined as 38%.

Broadly, the EC50 is the concentration that produces a half-maximal response. A lower EC50 goes with a more potent agent.
